Data on 23 compounds can be found in patent publication US11225505B2, “Antimicrobial polymyxin derivative compounds” (MONASH UNIVERSITY, priority 2015, dated 2022).

Holding throughout (format): cell-based
Experiment [1] has as its system Acinetobacter baumannii FADDI-AB030. In words: microbe, parasite or virus in culture. The conditions noted are these: for MIC: Acinetobacter baumannii. The procedure:
MICs of the lipopeptides (trifluoroacetic acid salt, TFA) were determined by broth microdilution in cation-adjusted Mueller-Hinton broth (CAMHB) (Oxoid Australia, Thebarton, SA, Australia) according to the Clinical and Laboratory Standards Institute protocol (Clinical and Laboratory Standards Institute, Performance standards for antimicrobial susceptibility testing; twentyforth informational supplement M100-S24. Wayne, Pa., 2014). Polymyxin B sulphate was employed as the control. […] The following isolates were examined: Pseudomonas aeruginosa ATCC 27853, Pseudomonas aeruginosa FADDI-PA022*, Pseudomonas aeruginosa FADDI-PA01*, Pseudomonas aeruginosa FADDI-PA038*, Acinetobacter baumannii FADDI-AB034*, Acinetobacter baumannii ATCC 17978, Acinetobacter baumannii FADDI-AB030*, Klebsiella pneumoniae FADDI-KP032, Klebsiella pneumoniae FADDI-KP022*, Klebsiella pneumoniae Kp BM1*, Enterobacter cloacae FADDI-EC006, Enterobacter cloacae FADDI-EC001, and Enterobacter cloacae FADDI-EC003 (* Multi drug-resistant clinical isolates, § New Delhi Metallo-beta-lactamase-1 (NDM-1) producing). The results are illustrated in Tables 4 and 5. […]

Experiment [2] relates to Pseudomonas aeruginosa FADDI-PA01. The note with it: FADDI-. The procedure: (§1) MICs of the lipopeptides (trifluoroacetic acid salt, TFA) were determined by broth microdilution in cation-adjusted Mueller-Hinton broth (CAMHB) (Oxoid Australia, Thebarton, SA, Australia) according to the Clinical and Laboratory Standards Institute protocol (Clinical and Laboratory Standards Institute, Performance standards for antimicrobial susceptibility testing; twentyforth informational supplement M100-S24. Wayne, Pa., 2014). Polymyxin B sulphate was employed as the control. Antimicrobial activity of Compounds 1-104 against polymyxin-susceptible Gram-negative bacteria was examined. The following isolates were examined: Pseudomonas aeruginosa ATCC 27853, Pseudomonas aeruginosa FADDI-PA022*, Pseudomonas aeruginosa FADDI-PA01*, Pseudomonas aeruginosa FADDI-PA038*, Acinetobacter baumannii FADDI-AB034*, Acinetobacter baumannii ATCC 17978, Acinetobacter baumannii FADDI-AB030*, Klebsiella pneumoniae FADDI-KP032, Klebsiella pneumoniae FADDI-KP022*, Klebsiella pneumoniae Kp BM1*, Enterobacter cloacae FADDI-EC006, Enterobacter cloacae FADDI-EC001, and Enterobacter cloacae FADDI-EC003 (* Multi drug-resistant clinical isolates, § New Delhi Metallo-beta-lactamase-1 (NDM-1) producing). The results are illustrated in Tables 4 and 5.

Experiment [3] concerns Enterobacter cloacae FADDI-EC001. The conditions noted are these: FADDI-EC001. The procedure: as §1
In experiment [4] the test system is Klebsiella pneumoniae FADDI-KP032. The note with it: FADDI-KP032. How it is done: as §1
The test system of experiment [5] is Klebsiella pneumoniae Kp BM1. The conditions noted are these: Kp BM1. How it is done:
as §1

For experiment [6], the system named is Acinetobacter baumannii ATCC 17978. The note with it: ATCC 17978. How it is done:
as §1

Experiment [7] has as its system Pseudomonas aeruginosa FADDI-PA022. The conditions noted are these: FADDI-PA022. How it is done:
as §1

Experiment [8] relates to Enterobacter cloacae FADDI-EC006. The conditions noted are these: FADDI-EC006. The procedure:
as §1

For experiment [9], the system named is Pseudomonas aeruginosa FADDI-PA038. The conditions noted are these: FADDI-PA038. The procedure: as §1
Experiment [10] relates to Enterobacter cloacae FADDI-EC003. The note with it: FADDI-EC003. How it is done:
as §1

Experiment [11] deals with Pseudomonas aeruginosa ATCC 27853. The conditions noted are these: ATCC 27853. How it is done: as §1
Experiment [12] deals with Klebsiella pneumoniae FADDI-KP022. The conditions noted are these: FADDI-KP022. The procedure: as §1
In experiment [13] the test system is Acinetobacter baumannii FADDI-AB034. The conditions noted are these: FADDI-AB034. How it is done:
as §1

Where [14] appears, read: FADDIAB030, clinically used antibiotics, clinical isolate A. baumannii FADDI-AB030, read-out: minimum inhibitory concentration.

Values after ≈ are worked out from the molar mass of the structure shown. Where two headings read alike, the source gives them in different places. Where a SMILES comes first, the peptide text is derived from it. Bridges are numbered along the chain shown (N, C = ends). [ ]: non-standard residue; d: D form. The star is where a group is joined. Nicotinoyl(6-CF3) = O=C(c1ccc(C(F)(F)F)nc1)*; X21 = O=C(c1cnc(Cl)cc1Cl)*; Dab = NCC[C@H](N)C(=O)O; Abu = CC[C@H](N)C(=O)O; Dap = NC[C@H](N)C(=O)O

With `NCC[C@H](O)C(=O)N[C@@H]1C[C@H](N)[C@@H](O[C@H]2O[C@H](CN)[C@@H](O)[C@H](O)[C@H]2O)[C@H](O)[C@H]1O[C@H]1O[C@H](CO)[C@@H](O)[C@H](N)[C@H]1O` [Amikacin, reference compound], the MIC in experiment [1] (setting [14]) is > 32 µg/mL.
The same measure, in the same setting: next, `CC1(C)S[C@@H]2[C@H](NC(=O)[C@H](N)c3ccccc3)C(=O)N2[C@H]1C(=O)O` [Ampicillin, reference compound]: > 16 µg/mL; `C[C@H]1[C@H](NC(=O)/C(=N\OC(C)(C)C(=O)O)c2csc(N)n2)C(=O)N1S(=O)(=O)O` [Aztreonam, reference compound]: > 16 µg/mL.
The same measure, in the same setting: for `CO/N=C(\C(=O)N[C@@H]1C(=O)N2C(C(=O)[O-])=C(C[N+]3(C)CCCC3)CS[C@H]12)c1csc(N)n1` [Cefepime, reference compound] the value was > 16 µg/mL.
The same measure, in the same setting: for `CC(C)(O/N=C(\C(=O)N[C@@H]1C(=O)N2C(C(=O)[O-])=C(C[n+]3ccccc3)CS[C@H]12)c1csc(N)n1)C(=O)O` [Ceftazidime, reference compound] the value was > 16 µg/mL; for `CO/N=C(\C(=O)N[C@@H]1C(=O)N2C(C(=O)O)=C(CSc3nc(=O)c(=O)[nH]n3C)CS[C@H]12)c1csc(N)n1` [Ceftriaxone, reference compound], > 32 µg/mL.
On to `CC[C@@H]1NC(=O)[C@@H](CC(C)C)NC(=O)[C@H](CCN)NC(=O)[C@@H](NC(=O)[C@H](CN)NC(=O)[C@@H](NC(=O)[C@H](CCN)NC(=O)c2cnc(Cl)cc2Cl)[C@@H](C)O)CCNC(=O)[C@H]([C@@H](C)O)NC(=O)[C@H](CCN)NC(=O)[C@H](CCN)NC1=O` [Compound 2] (X21-[Dab]T[Dap][Dab][Dab][dL][Abu][Dab][Dab]T; lactam 4-C), for which the Minimum inhibitory concentration is 2 µg/mL (≈ 1.72 µM) in [1] (FADDI-AB030); 0.5 µg/mL (≈ 0.431 µM) in experiment [2]; 0.25 µg/mL (≈ 0.215 µM) in experiment [3]; 0.5 µg/mL (≈ 0.431 µM) in experiment [4]; 0.5 µg/mL (≈ 0.431 µM) in experiment [5]; 8 µg/mL (≈ 6.89 µM) in experiment [6]. In addition, the Minimum inhibitory concentration was 0.5 µg/mL (≈ 0.431 µM) in experiment [7]; 2 µg/mL (≈ 1.72 µM) in [8]; 1 µg/mL (≈ 0.861 µM) in [9]; 2 µg/mL (≈ 1.72 µM) in [10]; 0.5 µg/mL (≈ 0.431 µM) in experiment [11]; <0.125 µg/mL in [12]. In experiment [13], this compound yielded a Minimum inhibitory concentration of 8 µg/mL (≈ 6.89 µM).
Take `CC[C@@H]1NC(=O)[C@@H](CC(C)C)NC(=O)[C@H](CCN)NC(=O)[C@@H](NC(=O)[C@H](CN)NC(=O)[C@@H](NC(=O)[C@H](CCN)NC(=O)c2ccc(C(F)(F)F)nc2)[C@@H](C)O)CCNC(=O)[C@H]([C@@H](C)O)NC(=O)[C@H](CCN)NC(=O)[C@H](CCN)NC1=O` [Compound 3] ({Nicotinoyl(6-CF3)}-[Dab]T[Dap][Dab][Dab][dL][Abu][Dab][Dab]T; lactam 4-C): the Minimum inhibitory concentration in experiment [1] (FADDI-AB030) is 1 µg/mL (≈ 0.862 µM); in experiment [2], 0.5 µg/mL (≈ 0.431 µM); in experiment [3], 0.5 µg/mL (≈ 0.431 µM); in [4], 0.25 µg/mL (≈ 0.215 µM); in [5] it was 1 µg/mL (≈ 0.862 µM); in experiment [6], 1 µg/mL (≈ 0.862 µM). In addition, the Minimum inhibitory concentration was 1 µg/mL (≈ 0.862 µM) in experiment [7]; 1 µg/mL (≈ 0.862 µM) in experiment [8]; 1 µg/mL (≈ 0.862 µM) in [9]; 0.25 µg/mL (≈ 0.215 µM) in experiment [10]; 0.5 µg/mL (≈ 0.431 µM) in experiment [11]; <0.125 µg/mL in experiment [12]. For the same compound, in [13], the Minimum inhibitory concentration is 1 µg/mL (≈ 0.862 µM).
Regarding `C[C@@H](O)[C@H]1C(=O)N2C(C(=O)O)=C(S[C@@H]3CN[C@H](CNS(N)(=O)=O)C3)[C@H](C)[C@H]12` [Doripenem, reference compound], in experiment [1] (setting [14]), the MIC was > 8 µg/mL.
On the same count and under the same terms, next, `C[C@H]1c2cccc(O)c2C(=O)C2=C(O)[C@]3(O)C(=O)C(C(N)=O)=C(O)[C@@H](N(C)C)[C@@H]3[C@@H](O)[C@@H]21` [Doxycycline, reference compound]: > 8 µg/mL; `C[C@@H](O)[C@H]1C(=O)N2C(C(=O)O)=C(S[C@@H]3CN[C@H](C(=O)Nc4cccc(C(=O)O)c4)C3)[C@H](C)[C@H]12` [Ertapenem, reference compound]: > 8 µg/mL; `C[C@H]1NCc2cc(-c3ccc4c(=O)c(C(=O)O)cn(C5CC5)c4c3OC(F)F)ccc21` [Garenoxacin, reference compound]: > 4 µg/mL.
Same read-out and setting: for `COc1c(N2CCNC(C)C2)c(F)cc2c(=O)c(C(=O)O)cn(C3CC3)c12` (centres unmarked) [Gatifloxacin, reference compound] the value was > 4 µg/mL; for `C[C@@H](O)[C@H]1C(=O)N2C(C(=O)O)=C(SCCN=CN)C[C@H]12` [Imipenem, reference compound], > 8 µg/mL; for `C[C@H]1COc2c(N3CCN(C)CC3)c(F)cc3c(=O)c(C(=O)O)cn1c23` [Levofloxacin, reference compound], > 4 µg/mL.
Turning to `C[C@@H](O)[C@H]1C(=O)N2C(C(=O)O)=C(S[C@@H]3CN[C@H](C(=O)N(C)C)C3)[C@H](C)[C@H]12` [Meropenem, reference compound], the MIC in experiment [1] (setting [14]) was > 8 µg/mL.
Same read-out and setting: next, `CN(C)c1ccc(O)c2c1C[C@H]1C[C@H]3[C@H](N(C)C)C(O)=C(C(N)=O)C(=O)[C@@]3(O)C(O)=C1C2=O` [Minocycline, reference compound]: > 8 µg/mL.
Same read-out and setting: next, `COc1c(N2C[C@@H]3CCCN[C@@H]3C2)c(F)cc2c(=O)c(C(=O)O)cn(C3CC3)c12` [Moxifloxacin, reference compound]: > 4 µg/mL.
As to `CCN1CCN(C(=O)N[C@@H](C(=O)N[C@@H]2C(=O)N3[C@@H]2SC(C)(C)[C@@H]3C(=O)O)c2ccccc2)C(=O)C1=O` [Piperacillin, reference compound], the MIC in experiment [1] (setting [14]) was > 64 µg/mL.
As for `CN(C)[C@@H]1C(O)=C(C(N)=O)C(=O)[C@@]2(O)C(O)=C3C(=O)c4c(O)cccc4[C@@](C)(O)[C@H]3C[C@@H]12` [Tetracycline, reference compound], the MIC in experiment [1] (setting [14]) is > 8 µg/mL.
As to `CN(C)c1cc(NC(=O)CNC(C)(C)C)c(O)c2c1C[C@H]1C[C@H]3[C@H](N(C)C)C(O)=C(C(N)=O)C(=O)[C@@]3(O)C(O)=C1C2=O` [Tigecycline, reference compound], the MIC in [1] (FADDIAB030, read-out: minimum inhibitory concentration) came out at 4 µg/mL (≈ 6.83 µM).
As for `NC[C@H]1O[C@H](O[C@H]2[C@H](O)[C@@H](O[C@H]3O[C@H](CO)[C@@H](O)[C@H](N)[C@H]3O)[C@H](N)C[C@@H]2N)[C@H](N)C[C@@H]1O` [Tobramycin, reference compound], in [1] (setting [14]), the MIC was > 16 µg/mL.
Turning to Gentamicin [reference compound], the Minimum inhibitory concentration in experiment [1] (clinically used antibiotics, clinical isolate A. baumannii FADDI-AB030) was >8 µg/mL.
